The record followed here is patent publication US20090018169A1, “Sulfonamide Derivatives for the Treatment of Bacterial Infections” (Laboratoires Serono SA, priority 2006, published 2009).

In general, pIC50 refers to −log10 of the IC50, conventionally taken in molar units.

SMILES strings stand for the structures. pIC50: −log10 of the molar value.

Sequence of recombinant MPTPB enzyme (I6WXK4 whole entry, looked up): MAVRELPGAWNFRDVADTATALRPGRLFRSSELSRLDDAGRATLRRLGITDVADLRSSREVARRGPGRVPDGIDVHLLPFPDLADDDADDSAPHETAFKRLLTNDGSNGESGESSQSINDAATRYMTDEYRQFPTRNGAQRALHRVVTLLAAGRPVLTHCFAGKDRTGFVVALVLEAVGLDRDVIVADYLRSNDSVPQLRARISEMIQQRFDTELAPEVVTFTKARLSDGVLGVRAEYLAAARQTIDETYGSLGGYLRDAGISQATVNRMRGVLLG

In this assay the target is recombinant MPTPB enzyme (Mycobacterium tuberculosis, UniProt I6WXK4). Put plainly: MPTPB enzymatic assay (DiFMUP substrate, fluorescence). The class given is biochemical. The conditions noted are these: recombinant MPTPB 50 ng/ml, pH 6.6, 45 minutes at room temperature. The protocol:
The compounds of the inventions have been tested in the following enzymatic assay:
Five μl of diluted compound or vehicle (100% DMSO) was distributed to a 96 well plate. 55 μl of DiFMUP 72.7 μM diluted in MPTPB buffer (20 mM Bis Tris HCl pH 6.6, 0.1% Brij 35, 1 mM DL-Dithiothreitol) was added, followed by 40 μl of recombinant MPTPB enzyme (50 ng/ml) diluted in MPTPB buffer in order to start the reaction. After 45 minutes incubation at room temperature fluorescence intensity was measured on a Perkin-Elmer Fusion spectrofluorimeter (excitation at 355 nm, emission at 460 nm, for 0.2 s).
Examples of inhibitory activities for compounds of the invention are set out in Table I below.
Take `O=C(O)C(=O)N(Cc1cccc(Cl)c1)Cc1ccc(S(=O)(=O)NCCC(c2ccccc2)c2ccccc2)s1` [Example 14, {(3-chlorobenzyl) [(5-{[(3,3-diphenylpropyl)amino]sulfonyl}-2-thienyl)-methyl]amino}(oxo)acetic acid]: the pIC50 is 6.10. As for `CCCCCCCCCCCCNS(=O)(=O)c1ccc(CN(Cc2ccccc2F)C(=O)C(=O)O)s1` [Example 6, [({5-[(dodecylamino)sulfonyl]-2-thienyl}methyl)(2-fluorobenzyl)amino]-(oxo)acetic acid], the pIC50 is 6.13. The value for `CC(CNS(=O)(=O)c1ccc(CN(Cc2cccc(Cl)c2)C(=O)C(=O)O)s1)c1ccc(Cl)cc1` (stereo not drawn) [Example 24, ((3-chlorobenzyl){[5-({[2-(4-chlorophenyl)propyl]amino}sulfonyl)-2-thienyl]methyl}amino)(oxo)acetic acid] was 6.11.
